# Laboratory results published in PubChem BioAssay (NCI).
#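 Where inhibition never reached the appropriate level, the endpoint shown equals the highest concentration tested. Otherwise, values were interpolated linearly from a five-concentration, 48-hour dose response in 96-well plates. GI50: concentration for 50% inhibition of growth. TGI: concentration producing complete growth inhibition.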
# Legend:
# Test in all cases: inhibition of tumour cell growth, NCI panel, 48 h
# 786-0 renal = system: 786-0 renal
# A498 renal = system: A498 renal
# A549 NSCLC = system: A549 NSCLC
# ACHN renal = system: ACHN renal
# BT-549 breast = system: BT-549 breast
# CAKI-1 renal = system: CAKI-1 renal
# CCRF-CEM leukemia = system: CCRF-CEM leukemia
# COLO 205 colon = system: COLO 205 colon
# DU-145 prostate = system: DU-145 prostate
# EKVX NSCLC = system: EKVX NSCLC
# HCC-2998 colon = system: HCC-2998 colon
# HCT-116 colon = system: HCT-116 colon
# HCT-15 colon = system: HCT-15 colon
# HL-60(TB) leukemia = system: HL-60(TB) leukemia
# HOP-62 NSCLC = system: HOP-62 NSCLC
# HOP-92 NSCLC = system: HOP-92 NSCLC
# HS 578T breast = system: HS 578T breast
# HT29 colon = system: HT29 colon
# IGROV1 ovarian = system: IGROV1 ovarian
# K-562 leukemia = system: K-562 leukemia
# KM12 colon = system: KM12 colon
# LOX IMVI melanoma = system: LOX IMVI melanoma
# M14 melanoma = system: M14 melanoma
# MALME-3M melanoma = system: MALME-3M melanoma
# MCF7 breast = system: MCF7 breast
# MDA-MB-435 = system: MDA-MB-435
# MDA-MB-468 breast = system: MDA-MB-468 breast
# MOLT-4 leukemia = system: MOLT-4 leukemia
# NCI-H226 lung = system: NCI-H226 lung
# NCI-H23 lung = system: NCI-H23 lung
# NCI-H460 lung = system: NCI-H460 lung
# NCI-H522 lung = system: NCI-H522 lung
# NCI/ADR-RES ovarian = system: NCI/ADR-RES ovarian
# OVCAR-3 ovarian = system: OVCAR-3 ovarian
# OVCAR-4 ovarian = system: OVCAR-4 ovarian
# OVCAR-5 ovarian = system: OVCAR-5 ovarian
# OVCAR-8 ovarian = system: OVCAR-8 ovarian
# PC-3 prostate = system: PC-3 prostate
# RPMI-8226 leukemia = system: RPMI-8226 leukemia
# RXF 393 renal = system: RXF 393 renal
# SF-268 CNS = system: SF-268 CNS
# SF-295 CNS = system: SF-295 CNS
# SF-539 CNS = system: SF-539 CNS
# SK-MEL-28 melanoma = system: SK-MEL-28 melanoma
# SK-MEL-5 melanoma = system: SK-MEL-5 melanoma
# SK-OV-3 ovarian = system: SK-OV-3 ovarian
# SN12C renal = system: SN12C renal
# SNB-19 CNS = system: SNB-19 CNS
# SR leukemia = system: SR leukemia
# SW-620 colon = system: SW-620 colon
# T-47D breast = system: T-47D breast
# TK-10 renal = system: TK-10 renal
# U251 CNS = system: U251 CNS
# UACC-62 melanoma = system: UACC-62 melanoma
smiles,measurement,setting,value
C[C@H]1[C@@H](CC(=O)N[C@@H](Cc2coc3ccccc23)B(O)O)O[C@@H]2OC3(C)CC[C@H]4[C@H](C)CC[C@@H]1[C@@]24OO3,GI50,786-0 renal,2840 nM
same,TGI,786-0 renal,15100 nM
same,GI50,A498 renal,2280 nM
same,TGI,A498 renal,9800 nM
same,GI50,A549 NSCLC,2460 nM
same,TGI,A549 NSCLC,> 71000 nM
same,GI50,ACHN renal,2010 nM
same,TGI,ACHN renal,> 71000 nM
same,GI50,BT-549 breast,556 nM
same,TGI,BT-549 breast,1800 nM
same,GI50,CAKI-1 renal,3630 nM
same,TGI,CAKI-1 renal,21900 nM
same,GI50,CCRF-CEM leukemia,322 nM
same,TGI,CCRF-CEM leukemia,5380 nM
same,GI50,COLO 205 colon,1890 nM
same,TGI,COLO 205 colon,8900 nM
same,GI50,DU-145 prostate,5470 nM
same,TGI,DU-145 prostate,62100 nM
same,GI50,EKVX NSCLC,3140 nM
same,TGI,EKVX NSCLC,22200 nM
same,GI50,HCC-2998 colon,1230 nM
same,TGI,HCC-2998 colon,2300 nM
same,GI50,HCT-116 colon,783 nM
same,TGI,HCT-116 colon,2290 nM
same,GI50,HCT-15 colon,363 nM
same,TGI,HCT-15 colon,4290 nM
same,GI50,HL-60(TB) leukemia,177 nM
same,TGI,HL-60(TB) leukemia,2040 nM
same,GI50,HOP-62 NSCLC,2260 nM
same,TGI,HOP-62 NSCLC,8310 nM
same,GI50,HOP-92 NSCLC,1340 nM
same,TGI,HOP-92 NSCLC,4090 nM
same,GI50,HS 578T breast,1900 nM
same,TGI,HS 578T breast,12000 nM
same,GI50,HT29 colon,1550 nM
same,TGI,HT29 colon,4860 nM
same,GI50,IGROV1 ovarian,2260 nM
same,TGI,IGROV1 ovarian,9300 nM
same,GI50,K-562 leukemia,1140 nM
same,TGI,K-562 leukemia,13800 nM
same,GI50,KM12 colon,1980 nM
same,TGI,KM12 colon,6320 nM
same,GI50,LOX IMVI melanoma,892 nM
same,TGI,LOX IMVI melanoma,1990 nM
same,GI50,M14 melanoma,1330 nM
same,TGI,M14 melanoma,3860 nM
same,GI50,MALME-3M melanoma,1070 nM
same,TGI,MALME-3M melanoma,4580 nM
same,GI50,MCF7 breast,969 nM
same,TGI,MCF7 breast,15600 nM
same,GI50,MDA-MB-435,287 nM
same,TGI,MDA-MB-435,1510 nM
same,GI50,MDA-MB-468 breast,917 nM
same,TGI,MDA-MB-468 breast,2570 nM
same,GI50,MOLT-4 leukemia,267 nM
same,TGI,MOLT-4 leukemia,3540 nM
same,GI50,NCI-H226 lung,876 nM
same,TGI,NCI-H226 lung,2140 nM
same,GI50,NCI-H23 lung,1620 nM
same,TGI,NCI-H23 lung,7440 nM
same,GI50,NCI-H460 lung,2460 nM
same,TGI,NCI-H460 lung,12000 nM
same,GI50,NCI-H522 lung,493 nM
same,TGI,NCI-H522 lung,1810 nM
same,GI50,NCI/ADR-RES ovarian,8060 nM
same,TGI,NCI/ADR-RES ovarian,37200 nM
same,GI50,OVCAR-3 ovarian,1260 nM
same,TGI,OVCAR-3 ovarian,5180 nM
same,GI50,OVCAR-4 ovarian,2600 nM
same,TGI,OVCAR-4 ovarian,68500 nM
same,GI50,OVCAR-5 ovarian,1650 nM
same,TGI,OVCAR-5 ovarian,7120 nM
same,GI50,OVCAR-8 ovarian,2080 nM
same,TGI,OVCAR-8 ovarian,11700 nM
same,GI50,PC-3 prostate,1190 nM
same,TGI,PC-3 prostate,18800 nM
same,GI50,RPMI-8226 leukemia,267 nM
same,TGI,RPMI-8226 leukemia,1420 nM
same,GI50,RXF 393 renal,259 nM
same,TGI,RXF 393 renal,1120 nM
same,GI50,SF-268 CNS,3040 nM
same,TGI,SF-268 CNS,> 71000 nM
same,GI50,SF-295 CNS,1980 nM
same,TGI,SF-295 CNS,7690 nM
same,GI50,SF-539 CNS,1050 nM
same,TGI,SF-539 CNS,2470 nM
same,GI50,SK-MEL-28 melanoma,1200 nM
same,TGI,SK-MEL-28 melanoma,3630 nM
same,GI50,SK-MEL-5 melanoma,1130 nM
same,TGI,SK-MEL-5 melanoma,2220 nM
same,GI50,SK-OV-3 ovarian,3550 nM
same,TGI,SK-OV-3 ovarian,13400 nM
same,GI50,SN12C renal,2180 nM
same,TGI,SN12C renal,10600 nM
same,GI50,SNB-19 CNS,3430 nM
same,TGI,SNB-19 CNS,> 71000 nM
same,GI50,SR leukemia,143 nM
same,TGI,SR leukemia,677 nM
same,GI50,SW-620 colon,362 nM
same,TGI,SW-620 colon,10200 nM
same,GI50,T-47D breast,749 nM
same,TGI,T-47D breast,3030 nM
same,GI50,TK-10 renal,1640 nM
same,TGI,TK-10 renal,> 71000 nM
same,GI50,U251 CNS,2140 nM
same,TGI,U251 CNS,10500 nM
same,GI50,UACC-62 melanoma,1060 nM
same,TGI,UACC-62 melanoma,2230 nM
